From US11878975B2, “Substituted indole compounds useful as TLR inhibitors” (BRISTOL-MYERS SQUIBB COMPANY, priority 2017, dated 2024) come the findings set out here.

Structures are written as SMILES.

Holding throughout (format): cell-based
The target of test [1] is T1, human TLR9 (Homo sapiens, UniProt Q9NR96).
T1 construct: host or cells: HEK-Blue cells
T1 sequence (Q9NR96 26-1032): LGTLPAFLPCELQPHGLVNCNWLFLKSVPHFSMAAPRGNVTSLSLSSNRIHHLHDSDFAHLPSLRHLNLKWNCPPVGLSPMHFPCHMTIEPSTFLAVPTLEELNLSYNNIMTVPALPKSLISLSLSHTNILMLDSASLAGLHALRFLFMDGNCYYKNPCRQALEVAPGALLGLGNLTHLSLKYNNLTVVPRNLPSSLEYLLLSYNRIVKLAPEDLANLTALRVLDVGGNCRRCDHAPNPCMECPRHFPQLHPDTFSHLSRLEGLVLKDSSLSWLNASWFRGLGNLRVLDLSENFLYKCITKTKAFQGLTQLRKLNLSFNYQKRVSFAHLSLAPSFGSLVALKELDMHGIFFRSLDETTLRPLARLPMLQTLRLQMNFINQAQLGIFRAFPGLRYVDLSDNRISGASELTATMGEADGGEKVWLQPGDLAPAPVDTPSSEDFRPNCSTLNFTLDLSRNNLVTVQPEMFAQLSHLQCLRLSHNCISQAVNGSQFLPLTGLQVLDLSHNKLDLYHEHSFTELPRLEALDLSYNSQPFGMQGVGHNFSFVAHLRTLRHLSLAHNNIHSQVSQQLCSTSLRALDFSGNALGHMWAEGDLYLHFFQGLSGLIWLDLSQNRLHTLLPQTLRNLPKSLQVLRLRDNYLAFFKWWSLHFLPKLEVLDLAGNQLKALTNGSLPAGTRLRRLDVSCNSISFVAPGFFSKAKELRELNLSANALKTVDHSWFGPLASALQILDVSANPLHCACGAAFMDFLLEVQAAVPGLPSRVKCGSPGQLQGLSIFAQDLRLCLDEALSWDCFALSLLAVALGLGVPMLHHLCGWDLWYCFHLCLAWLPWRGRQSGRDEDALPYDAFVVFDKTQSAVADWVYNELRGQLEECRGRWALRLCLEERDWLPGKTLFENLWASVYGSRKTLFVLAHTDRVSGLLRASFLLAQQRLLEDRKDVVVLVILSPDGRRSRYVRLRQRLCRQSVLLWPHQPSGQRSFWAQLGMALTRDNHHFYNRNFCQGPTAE
In words: TLR9 inhibition reporter assay (HEK-Blue cells, SEAP reporter, ODN2006 stimulation). Conditions: HEK-Blue cells overexpressing human TLR9, SEAP reporter, ODN2006 5 nM. A digest of the protocol: (§1)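 Dose range 0.05 nM–50 μM; 30 min preincubation, RT. Agonists: TLR7 gardiquimod 7.5 μM, TLR8 R848 15.9 μM, TLR9 ODN2006 5 nM. 22 h, 37 °C, 5% CO2. SEAP (IFN-β minimal promoter with NF-κB/AP-1 sites) via colorimetric detection medium; % inhibition vs agonist+DMSO and reference-inhibitor wells.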
(Reporter assays use an easily measured gene product as a stand-in for the process of interest.)

Test [2] deals with T2, human TLR7 (Homo sapiens, UniProt Q9NYK1).
T2 construct: host or cells: HEK-Blue cells
T2 sequence (Q9NYK1 27-1049): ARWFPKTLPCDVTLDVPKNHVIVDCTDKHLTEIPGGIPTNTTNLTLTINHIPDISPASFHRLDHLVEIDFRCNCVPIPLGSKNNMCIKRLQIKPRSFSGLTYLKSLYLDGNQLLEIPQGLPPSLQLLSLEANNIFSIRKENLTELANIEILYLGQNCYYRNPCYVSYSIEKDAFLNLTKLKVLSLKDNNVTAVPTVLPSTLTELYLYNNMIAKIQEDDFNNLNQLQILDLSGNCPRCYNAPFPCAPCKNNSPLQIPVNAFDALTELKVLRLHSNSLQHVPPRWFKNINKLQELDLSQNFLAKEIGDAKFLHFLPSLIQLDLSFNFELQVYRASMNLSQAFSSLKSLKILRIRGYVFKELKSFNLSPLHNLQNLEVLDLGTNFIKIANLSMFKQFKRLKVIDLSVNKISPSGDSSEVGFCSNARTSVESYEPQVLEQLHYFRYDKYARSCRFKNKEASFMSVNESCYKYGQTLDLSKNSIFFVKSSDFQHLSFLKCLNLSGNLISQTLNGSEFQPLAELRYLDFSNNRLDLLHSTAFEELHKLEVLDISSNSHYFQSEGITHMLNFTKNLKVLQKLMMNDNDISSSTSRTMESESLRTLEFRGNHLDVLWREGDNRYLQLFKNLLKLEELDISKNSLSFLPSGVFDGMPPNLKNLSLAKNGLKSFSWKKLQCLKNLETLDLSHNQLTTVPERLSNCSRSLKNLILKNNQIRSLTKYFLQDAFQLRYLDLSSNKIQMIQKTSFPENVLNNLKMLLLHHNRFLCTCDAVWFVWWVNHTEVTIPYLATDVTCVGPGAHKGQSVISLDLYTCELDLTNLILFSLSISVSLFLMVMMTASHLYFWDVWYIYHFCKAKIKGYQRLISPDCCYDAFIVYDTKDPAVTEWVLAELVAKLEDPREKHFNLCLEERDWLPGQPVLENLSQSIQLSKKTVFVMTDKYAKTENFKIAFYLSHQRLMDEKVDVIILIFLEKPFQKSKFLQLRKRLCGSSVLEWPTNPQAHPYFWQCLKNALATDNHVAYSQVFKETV
In words: TLR7 inhibition reporter assay (HEK-Blue cells, SEAP reporter, gardiquimod stimulation). Conditions: HEK-Blue cells overexpressing human TLR7, SEAP reporter, gardiquimod 7.5 μM. A digest of the protocol:
as §1

Test [3] concerns the target T3, human TLR8 (Homo sapiens, UniProt Q9NR97).
T3 construct: host or cells: HEK-Blue cells
T3 sequence (Q9NR97 27-1041): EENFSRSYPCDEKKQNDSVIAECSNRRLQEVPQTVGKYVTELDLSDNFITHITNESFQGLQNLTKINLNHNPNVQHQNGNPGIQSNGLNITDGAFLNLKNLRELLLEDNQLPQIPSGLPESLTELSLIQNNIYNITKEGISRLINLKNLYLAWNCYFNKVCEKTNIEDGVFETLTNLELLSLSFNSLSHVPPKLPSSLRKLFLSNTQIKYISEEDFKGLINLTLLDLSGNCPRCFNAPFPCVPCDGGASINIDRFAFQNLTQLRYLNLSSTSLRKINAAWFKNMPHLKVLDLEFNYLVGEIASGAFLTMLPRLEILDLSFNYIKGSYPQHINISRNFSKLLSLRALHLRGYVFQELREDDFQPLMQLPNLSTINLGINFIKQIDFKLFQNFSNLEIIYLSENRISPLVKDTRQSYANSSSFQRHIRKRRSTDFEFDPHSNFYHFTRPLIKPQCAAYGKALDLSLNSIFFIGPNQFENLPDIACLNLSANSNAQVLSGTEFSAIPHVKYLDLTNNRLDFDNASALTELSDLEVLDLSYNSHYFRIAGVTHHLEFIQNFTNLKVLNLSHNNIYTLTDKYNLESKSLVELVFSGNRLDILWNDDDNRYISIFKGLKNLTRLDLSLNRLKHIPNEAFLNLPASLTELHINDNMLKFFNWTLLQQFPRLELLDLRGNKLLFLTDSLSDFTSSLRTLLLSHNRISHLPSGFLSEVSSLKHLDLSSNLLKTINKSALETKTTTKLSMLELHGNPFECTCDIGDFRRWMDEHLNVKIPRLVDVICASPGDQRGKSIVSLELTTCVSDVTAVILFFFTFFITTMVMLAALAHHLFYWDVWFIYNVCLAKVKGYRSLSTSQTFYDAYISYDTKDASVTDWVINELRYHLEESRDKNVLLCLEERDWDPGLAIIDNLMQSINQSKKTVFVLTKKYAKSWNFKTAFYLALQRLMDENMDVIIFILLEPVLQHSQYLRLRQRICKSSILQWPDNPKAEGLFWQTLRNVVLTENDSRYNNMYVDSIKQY
Description: TLR8 inhibition reporter assay (HEK-Blue cells, SEAP reporter, R848 stimulation). Conditions: HEK-Blue cells overexpressing human TLR8, SEAP reporter, R848 15.9 μM. In short, it runs like this: as §1

As usually defined, the IC50 is the concentration needed to halve the response being measured. The low end stands for greater potency in that assay, the high end for weaker potency in that assay. In the case of `Cc1c(-c2[nH]c3ccc(C4CN(C5CCOC5)C4)cc3c2C(C)C)cn2cnnc2c1C` (stereo not drawn) [Example 538], the IC50 in test [1] amounted to 16500 nM; in test [2], 33 nM; in test [3], 45 nM.
Turning to `Cc1c(-c2[nH]c3ccc(C4CC5CN(C6CCOC6)CC5C4)cc3c2C(C)C)cn2cnnc2c1C` (stereo not drawn) [Example 562], the IC50 was 3710 nM in test [1], 4 nM in test [2] and 28 nM in test [3].
`Cc1cc(-c2[nH]c3ccc(C4CCC(N(C)C(=O)CN(C)C)CC4)cc3c2C(C)C)cn2ncnc12` (stereo not drawn) [Example 148]: the IC50 amounted to 2440 nM in test [1], 1 nM in test [2] and 7.7 nM in test [3].
`Cc1c(-c2[nH]c3ccc(C4CN(CC(=O)N(C)C)C(C)(C)CO4)cc3c2C(C)C)cn2ncnc2c1C` (stereo not drawn) [Example 387]: the IC50 in test [1] was more than 50000 nM; in test [2], 86 nM; in test [3] it was 44 nM.
Regarding `Cc1c(-c2[nH]c3ccc(C4CC5CN(C)CC5C4)cc3c2C(C)C)cn2cnnc2c1C` (stereo not drawn) [Example 559], the IC50 in test [1] turned out to be 2120 nM; in test [2], 2 nM; in test [3], 9.2 nM.
On the same counts, the results for `Cc1cc(-c2[nH]c3ccc(C4CCC(N(C)CC(=O)N(C)C)CC4)cc3c2C(C)C)cn2ncnc12` (single isomer, unassigned) [Example 177, 2-((4-(3-isopropyl-2-(8-methyl-[1,2,4]triazolo[1,5-a]pyridin-6-yl)-1H-indol-5-yl)cyclohexyl)(methyl)amino)-N,N-dimethylacetamide] are 7020 nM, 5 nM and 24 nM.
As to `CNC(=O)CNC1CCC(c2ccc3[nH]c(-c4cc(C)nc(C)c4)c(C(C)C)c3c2)CC1` (single isomer, unassigned) [Example 179, 2-((4-(2-(2,6-dimethylpyridin-4-yl)-3-isopropyl-1H-indol-5-yl)cyclohexyl)amino)-N-methylacetamide], the IC50 is 767 nM in test [1], 2 nM in test [2] and 3.5 nM in test [3].
`Cc1cc(-c2[nH]c3ccc([C@@H]4C[C@H]4C(=O)NC4CCN(C(C)C)CC4)cc3c2C(C)C)ccn1` [Example 458]: the IC50 in test [1] came to 2270 nM; in test [2], 57 nM; in test [3] it was 21 nM.
With `Cc1c(-c2[nH]c3ccc(C4CCC(NC5(C)COC5)CC4)cc3c2C(C)C)cn2ncnc2c1C` (stereo not drawn) [Example 48], the half-inhibitory concentration (IC50) in test [1] was found to be 1850 nM; in test [2], 0.55 nM; in test [3] it was 0.4 nM.
Take `Cc1cc(-c2[nH]c3ccc(C4CN(CC(N)=O)CCO4)cc3c2C(C)C)cc(C)n1` (stereo not drawn) [Example 324]: the IC50 in test [1] turned out to be 45000 nM; in test [2], 44 nM; in test [3] it was 114 nM.
Regarding `Cc1c(-c2[nH]c3ccc(C4CCC(N5CC(CO)(CO)C5)CC4)cc3c2C(C)C)cn2ncnc2c1C` (single isomer, unassigned) [Example 27], the concentration for half-maximal inhibition (IC50) in test [1] was 1760 nM; in test [2], 2 nM; in test [3], 2.8 nM.
In the case of `COc1cc(-c2[nH]c3ccc(C4CCC(N5CCNC(=O)C5)CC4)cc3c2C(C)C)cn2ncnc12` (stereo not drawn) [Example 78], the IC50 in test [1] came to 16800 nM; in test [2], 3 nM; in test [3], 32 nM.
Turning to `Cc1cc(-c2[nH]c3ccc(C4CCCN(C(=O)CN5CCOCC5)C4)cc3c2C(C)C)cc(C)n1` (stereo not drawn) [Example 196], the IC50 came to 31600 nM in test [1], 16 nM in test [2] and 84 nM in test [3].
For `Cc1cc(-c2[nH]c3ccc(C4CN(CCS(C)(=O)=O)C(C)(C)CO4)cc3c2C(C)C)cn2ncnc12` (stereo not drawn) [Example 384], in that order: 30100 nM, 13 nM and 11 nM.
Consider `Cc1c(-c2[nH]c3ccc(C4CC5CNCC5C4)cc3c2C(C)C)cn2ncnc2c1C` (stereo not drawn) [Example 506], for which the IC50 in test [1] was determined as 6590 nM; in test [2], 1 nM; in test [3], 21 nM.
For the compound `COc1cc(-c2[nH]c3ccc(C4CCC(N(C)OC)CC4)cc3c2C(C)C)cn2ncnc12` (stereo not drawn) [Example 99], the half-inhibitory concentration (IC50) stood at 15300 nM in test [1], 7 nM in test [2] and 53 nM in test [3].
For the compound `CCc1c(-c2ccnc(C)c2)[nH]c2ccc(CNC(=O)N3CCN(C)CC3)cc12` [Example 448], the IC50 in test [1] is 1250 nM; in test [2], 1520 nM; in test [3], 134 nM.
For `COc1cc(-c2[nH]c3ccc(C4CC(N(C)C(=O)CN(C)C)C4)cc3c2C(C)C)cn2ncnc12` (stereo not drawn) [Example 585], the half-maximal inhibitory concentration (IC50) in test [1] is 2810 nM; in test [2], 0.55 nM; in test [3], 2.9 nM.
Consider `COCCN1CC(c2ccc3[nH]c(-c4cn(C)c(=O)c(C)c4C)c(C(C)C)c3c2)C1` [Example 487], for which the values for the IC50 in test [1], in test [2] and in test [3] were 10500 nM, 45 nM and 5.8 nM, respectively.
With `COc1cc(-c2[nH]c3ccc(C4CCC(N5CCC[C@H]5C(N)=O)CC4)cc3c2C(C)C)cn2ncnc12` (stereo partly drawn) [Example 29], the values for the IC50 in test [1], in test [2] and in test [3] were 909 nM, 0.26 nM and 1.9 nM, respectively.
